Source: ChEMBL document CHEMBL4627303, “Design, synthesis and evaluation of flurbiprofen-clioquinol hybrids as multitarget-directed ligands against Alzheimer's disease” (Bioorg Med Chem, 2020)

Assays:
[1] = molecular target: Amyloid-beta precursor protein (Homo sapiens) (UniProt P05067); assay: Inhibition of HFIP-pretreated amyloid beta (1 to 42) (unknown origin) self-aggregation at 25 uM after 24 hrs by thioflavin-T fluorescence assay relative to control
[2] = molecular target: T1, Amine oxidase [flavin-containing] B (Homo sapiens, UniProt P27338); assay: Inhibition of recombinant human MAOB expressed in baculovirus infected in BTI cells at 10 uM using kynuramine as substrate after 30 mins by fluorescence based assay relative to control; settings: 0.5 h
T1 sequence (P27338 whole entry): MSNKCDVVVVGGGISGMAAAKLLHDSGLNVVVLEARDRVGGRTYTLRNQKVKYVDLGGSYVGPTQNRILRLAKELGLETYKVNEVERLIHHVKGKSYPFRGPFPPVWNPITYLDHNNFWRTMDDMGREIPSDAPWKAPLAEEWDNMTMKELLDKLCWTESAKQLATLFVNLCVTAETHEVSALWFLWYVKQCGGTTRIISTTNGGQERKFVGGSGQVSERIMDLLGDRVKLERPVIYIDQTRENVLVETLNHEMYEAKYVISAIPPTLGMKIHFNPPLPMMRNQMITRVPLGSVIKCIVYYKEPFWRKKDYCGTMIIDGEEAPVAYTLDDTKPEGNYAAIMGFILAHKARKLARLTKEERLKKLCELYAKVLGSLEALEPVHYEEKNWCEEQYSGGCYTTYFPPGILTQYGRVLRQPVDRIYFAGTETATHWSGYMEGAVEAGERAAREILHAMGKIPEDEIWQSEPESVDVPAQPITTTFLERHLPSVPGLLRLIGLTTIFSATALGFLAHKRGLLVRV

[3] = molecular target: Amyloid-beta precursor protein (Homo sapiens) (UniProt P05067); assay: Disaggregation of self-induced amyloid beta (1 to 42) (unknown origin) preformed fibrils at 25 uM measured after 24 hrs by thioflavin-T fluorescence assay relative to control
[4] = Antioxidant activity assessed as AAPH-induced radical scavenging activity by measuring trolox equivalents for oxygen radical absorbance capacity measured every minute for 90 mins by ORAC-FL assay; assay type: functional
[5] = molecular target: T2, Amine oxidase [flavin-containing] A (Homo sapiens, UniProt P21397); assay: Inhibition of recombinant human MAOA expressed in baculovirus infected in BTI cells at 10 uM using kynuramine as substrate after 30 mins by fluorescence based assay relative to control; settings: 0.5 h
T2 sequence (P21397 whole entry): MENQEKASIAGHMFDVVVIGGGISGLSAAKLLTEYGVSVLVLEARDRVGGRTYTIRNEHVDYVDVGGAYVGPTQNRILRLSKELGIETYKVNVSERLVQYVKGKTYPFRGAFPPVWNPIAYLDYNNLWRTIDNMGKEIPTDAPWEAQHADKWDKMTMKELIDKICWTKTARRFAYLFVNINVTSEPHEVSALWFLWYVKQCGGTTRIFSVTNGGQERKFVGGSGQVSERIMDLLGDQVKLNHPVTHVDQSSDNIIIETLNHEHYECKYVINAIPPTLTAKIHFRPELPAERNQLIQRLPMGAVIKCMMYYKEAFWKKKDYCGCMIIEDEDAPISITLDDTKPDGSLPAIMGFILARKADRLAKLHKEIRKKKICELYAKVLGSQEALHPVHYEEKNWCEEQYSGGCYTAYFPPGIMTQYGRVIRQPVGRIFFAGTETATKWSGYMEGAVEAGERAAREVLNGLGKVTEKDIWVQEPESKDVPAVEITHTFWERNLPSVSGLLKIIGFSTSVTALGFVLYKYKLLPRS

[6] = molecular target: Amyloid-beta precursor protein (Homo sapiens) (UniProt P05067); assay: Inhibition of Cu2+-induced HFIP-pretreated amyloid beta (1 to 42) (unknown origin) aggregation at 25 uM measured after 24 hrs by thioflavin-T fluorescence assay relative to control
[7] = molecular target: T1, Amine oxidase [flavin-containing] B; assay: Inhibition of recombinant human MAOB expressed in baculovirus infected in BTI cells using kynuramine as substrate after 30 mins by fluorescence based assay; assay type: cell-based

Chain of Amyloid-beta precursor protein (Homo sapiens) (P05067 whole entry): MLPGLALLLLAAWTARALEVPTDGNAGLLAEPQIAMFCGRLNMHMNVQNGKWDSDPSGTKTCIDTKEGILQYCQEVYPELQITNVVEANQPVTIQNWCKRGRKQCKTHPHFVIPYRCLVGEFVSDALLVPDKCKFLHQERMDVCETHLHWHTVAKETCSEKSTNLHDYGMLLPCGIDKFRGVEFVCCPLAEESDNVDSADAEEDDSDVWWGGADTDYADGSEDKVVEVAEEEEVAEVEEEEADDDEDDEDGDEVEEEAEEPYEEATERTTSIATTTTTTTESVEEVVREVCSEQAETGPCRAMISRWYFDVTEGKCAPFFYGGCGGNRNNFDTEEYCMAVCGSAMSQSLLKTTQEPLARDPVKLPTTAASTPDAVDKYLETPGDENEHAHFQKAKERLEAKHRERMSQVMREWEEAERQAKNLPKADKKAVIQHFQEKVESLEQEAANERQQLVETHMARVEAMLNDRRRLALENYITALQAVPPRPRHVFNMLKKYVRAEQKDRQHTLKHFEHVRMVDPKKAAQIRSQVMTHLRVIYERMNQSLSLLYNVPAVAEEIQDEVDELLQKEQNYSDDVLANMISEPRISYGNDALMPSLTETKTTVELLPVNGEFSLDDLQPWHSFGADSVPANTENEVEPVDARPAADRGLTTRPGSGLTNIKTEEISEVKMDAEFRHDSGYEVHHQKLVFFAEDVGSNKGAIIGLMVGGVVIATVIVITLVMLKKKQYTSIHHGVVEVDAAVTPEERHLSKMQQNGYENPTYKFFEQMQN

inhibition [1] | inhibition at 10 µM [2] | Activity [3] | inhibition at 10 µM [5] | inhibition [6] | IC50 [7] | SMILES | Activity [4]
48.3% | < 5% | 41.9% | 30.6% | 41.9% |  | COC(=O)C(C)c1ccc(-c2ccc(NCc3cc(Cl)ccc3O)cc2)c(F)c1 (stereo not drawn) | 1.32 µMequiv/µM
37% | 28.4% | 36.6% | 29.3% | 32% |  | COC(=O)C(C)c1ccc(-c2ccc(NCc3cc(Br)ccc3O)cc2)c(F)c1 (stereo not drawn) | 1.37 µMequiv/µM
24.7% | < 5% | 44.1% | 15.9% | 42.9% |  | COC(=O)C(C)c1ccc(-c2ccc(NCc3ccccc3O)cc2)c(F)c1 (stereo not drawn) | 1.51 µMequiv/µM
58.5% | 11.4% | 42.6% | 21.9% | 49.7% |  | COC(=O)C(C)c1ccc(-c2ccc(NCc3cc(C)ccc3O)cc2)c(F)c1 (stereo not drawn) | 1.56 µMequiv/µM
32.5% |  |  |  | 32.5% |  | COc1cc(/C=C/C(=O)CC(=O)/C=C/c2ccc(O)c(OC)c2)ccc1O | 
29.4% | 25.8% | 30.2% | 18.2% | 29.4% |  | COC(=O)C(C)c1ccc(-c2ccc(NCc3cc(CN4CCCCC4)ccc3O)cc2)c(F)c1 (stereo not drawn) | 2.14 µMequiv/µM
58.2% | 36% | 49.3% | 17.8% | 38.3% |  | COC(=O)C(C)c1ccc(-c2ccc(NCc3cc(CN(C)C)cc(OC)c3O)cc2)c(F)c1 (stereo not drawn) | 2.07 µMequiv/µM
43% | 32.8% | 51.2% | 22.4% | 43.7% |  | COC(=O)C(C)c1ccc(-c2ccc(NCc3cc(CN(C)C)ccc3O)cc2)c(F)c1 (stereo not drawn) | 1.92 µMequiv/µM
48.3% | 45.8% | 35.5% | 36.8% | 37.8% | 16.6 µM | COC(=O)C(C)c1ccc(-c2ccc(NCc3ccccn3)cc2)c(F)c1 (stereo not drawn) | 1.15 µMequiv/µM
39.2% | 46.2% | 27.1% | 18.7% | 24% | 16.3 µM | COC(=O)C(C)c1ccc(-c2ccc(NCc3cc(NC(C)=O)ccc3O)cc2)c(F)c1 (stereo not drawn) | 1.65 µMequiv/µM
57.9% | 16.4% | 35.9% | 17.9% | 38.3% |  | COC(=O)C(C)c1ccc(-c2ccc(NCc3cc(Br)cc(Br)c3O)cc2)c(F)c1 (stereo not drawn) | 1.42 µMequiv/µM
32.8% | 22.9% | 25.6% | 11.2% | 30.6% |  | COC(=O)C(C)c1ccc(-c2ccc(NCc3ccc(OC)cc3O)cc2)c(F)c1 (stereo not drawn) | 1.96 µMequiv/µM
73.6% | 33.4% | 53.3% | 28.4% | 43.6% |  | COC(=O)C(C)c1ccc(-c2ccc(NCc3cc(OC)ccc3O)cc2)c(F)c1 (stereo not drawn) | 2.05 µMequiv/µM
46.2% | 11.7% | 41.7% | 10.5% | 39.9% |  | COC(=O)C(C)c1ccc(-c2ccc(NCc3cccc(OC)c3O)cc2)c(F)c1 (stereo not drawn) | 1.68 µMequiv/µM
62.4% |  | 51.1% |  | 40.1% |  | Oc1c(I)cc(Cl)c2cccnc12 | 0.54 µMequiv/µM
68.6% | < 5% | 45.1% | 19.9% | 41.9% |  | COC(=O)C(C)c1ccc(-c2ccc(NCc3cccc(CN(C)C)c3O)cc2)c(F)c1 (stereo not drawn) | 2.18 µMequiv/µM
48.8% | < 5% | 43.3% | < 5% | 42.4% |  | COC(=O)C(C)c1ccc(-c2ccc(NCc3cccc(CN4CCCCC4)c3O)cc2)c(F)c1 (stereo not drawn) | 2.02 µMequiv/µM
